# Assay results published in patent US20260373132A1, “PERK INHIBITORHC-5404 IN COMBINATION WITH ANTI-PD-1 ANTIBODY AND/OR AN ANTIANGIOGENETIC AGENT FOR USE IN THE TREATMENT OF CANCER” (HIBERCELL, INC., priority 2022, published 2026).
# How the values were obtained:
# 468 unique kinases = test: KINOMEScan biochemical panel assay; type: binding, human
# Description: (§1) The selectivity of HC-5404 against the broader kinome was then evaluated using a KINOMEScan biochemical panel assay that measured binding against 468 unique kinases, including 403 wild-type human kinases and 59 mutant isoforms.
# [1] = tested on: myeloid, lymphoid and tumor cells in MB49 model; test: flow cytometry of tumor, lymph node and blood cells in MB49 model; type: in vivo, mouse; conditions: 10, 30 mg/kg (FIG. 8)
# Description: C57BL/6 mice were subcutaneously inoculated with MB49 cells, and treatment started on day 8 post cell inoculation. A group of animals (n=10/group) received either vehicle, HC-5404 (PO, BID) (3 mg/kg, 10 mg/kg, or 30 mg/kg), 5 mg/kg anti-PD-1 antibody (aPD-1) (RMP1-14) (IP, BIW), or the combination of both. At various timepoints, animals were sacrificed, and flow cytometry was performed on blood or single cell suspensions from tumors or lymph nodes (n=6).
# Tumor tissue samples were obtained 7 days post treatment (14 days post inoculation). Single cells were prepared by enzymatic digestion of tumor tissues and subsequently analyzed by flow cytometry on a Cytek Aurora. Expression of IFNAR1 (A) and PD-L1 (B) on the myeloid populations and tumors were shown.
# Surface calreticulin was analyzed by flow cytometry on MB49 tumor cells d7 post treatment.
# Single cell suspensions were washed in PBS twice and then stained with the LIVE/DEAD fixable blue dead cell stain (Invitrogen cat #L23105) at 1:3000 dilution for 30 minutes at 4 °C. […]
# LN cells from day 14 post treatment samples were analyzed by flow cytometry. […]
# Whole blood was collected on the indicated date post treatment in a MB49 model. IFNAR1 expression was determined by flow cytometry and gated on CD14+ monocytes […]
# RIOK2 = RIOK2 (Homo sapiens, UniProt Q9BVS4); test: KINOMEScan biochemical panel assay, RIOK2; type: binding; conditions: 1000 nM
# Description: as §1
# [2] = tested on: mouse bone marrow-derived MDSCs / T cells; test: mouse T cell suppression assay with bone marrow-derived MDSCs; type: cell-based; conditions: LSLG + 500 nM (FIG. 11A, 11C)
# Description: Mouse MDSC Preparation: Single cell suspensions from bone marrow were prepared from the tibia and femur bone of C57BL/6 mice. Cells were cultured in RPMI complete medium (RPMI medium supplemented with 10% FBS, 10 mM HEPES, 1 mM Sodium pyruvate, 50 uM 2-ME, 1 mM MEM NEAA, 1× penicillin-streptomycin and 2 mM L-glutamax) at 2.5×10^6 cells per 10 ml in a […] tissue culture dish for 4 days in a 37 0 °C, 5% CO2 humidified incubator. Cytokines GM-CSF (10 ng/ml) and IL-6 (10 ng/mL) were added to the cell culture on day 0. For low serum low glucose (LSLG) medium treatment, cultured cells were first harvested from the plate and washed twice with RPMI medium to rinse off residual serum and glucose, and then cultured in 5 ml of LSLG medium (glucose-free RPMI supplemented with 1% FBS, 1 g/L glucose, 1× penicillin-streptomycin and 2 mM L-glutamax) in a 15 ml conical tube for 6 hours with or without HC-5404 addition. Cells were harvested and used in the T cell suppression assay.
# Mouse T cell suppression assay: Spleens were harvested from C57BL/6 mice. […] T cell proliferation was analyzed by flow cytometry. […] The labeled cells were analyzed on a BD Fortessa cytometer and data was analyzed by FlowJo. […] Data were analyzed using one-way ANOVA with multiple comparison corrected with Dunnett test. *P<0.05; **P<0.01; ***P<0.005, ****P<0.0001 (FIGS. 11A, 11B, and 11C).
# Sequence of RIOK2 (Q9BVS4 whole entry): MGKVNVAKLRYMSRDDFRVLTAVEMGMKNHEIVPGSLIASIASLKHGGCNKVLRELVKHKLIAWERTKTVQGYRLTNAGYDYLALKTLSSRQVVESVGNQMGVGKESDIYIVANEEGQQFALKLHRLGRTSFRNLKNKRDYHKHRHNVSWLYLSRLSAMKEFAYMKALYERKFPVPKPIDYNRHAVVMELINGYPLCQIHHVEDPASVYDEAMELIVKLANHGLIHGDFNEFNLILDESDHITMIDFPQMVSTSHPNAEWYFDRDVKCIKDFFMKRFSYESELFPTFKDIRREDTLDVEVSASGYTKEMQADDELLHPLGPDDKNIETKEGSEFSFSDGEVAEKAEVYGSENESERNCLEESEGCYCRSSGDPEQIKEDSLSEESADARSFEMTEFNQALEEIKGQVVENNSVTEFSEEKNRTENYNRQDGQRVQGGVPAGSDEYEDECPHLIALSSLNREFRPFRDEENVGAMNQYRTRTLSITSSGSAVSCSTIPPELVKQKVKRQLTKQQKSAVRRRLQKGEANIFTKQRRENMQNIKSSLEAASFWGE
structure (smiles),measurement,setting,value
"Cc1cc(NC(=O)[C@H](O)c2cc(F)cc(F)c2)ccc1-c1cnc(N)c(C(=O)NC(C)C)c1 [HC-5404, (R)-2-amino-5-(4-(2-(3,5-difluorophenyl)-2-hydroxyacetamido)-2-methylphenyl)-N-isopropylnicotinamide]",interactions in kinome panel,"468 unique kinases; 100 nM, PERK not in panel",no interactions observed
same,number of kinases inhibited >65%,"468 unique kinases; 10,000 nM",9 kinases
same,effect on IFNAR1 on monocytes in peripheral blood,[1],also detected on monocytes in peripheral blood
same,inhibition of RIOK2,RIOK2,inhibited
same,inhibition of T-cells by MDSCs,[2],reduced inhibition of T-cells
